Data: patent EP4624497A1, “PHOSPHOEN[…] PROBE, PREPARATION METHOD THEREFOR AND APPLICATION THEREOF” (priority 2022, dated 2024)

Test system: 293 cells with optical probe plasmids expressed in the cytosol
Assay: dynamic monitoring of phosphoenolpyruvate in the cytosol with the optical probe
Type: cell-based
Details: 5 mM Oxalate added, detection continued for 30 minutes, HBSS solution
Method: • 1. pCDNA3.1+-based phosphoenolpyruvate optical probe plasmids were transfected into HEK293 by using the transfection reagent Lipofectamine2000 (Invitrogen) and incubated in a cell incubator at 37 °C with 5% CO2. After the exogenous gene was fully expressed for 24~36 hours, the fluorescence detection was performed. • 2. After induction of expression, adherent HEK293 cells were washed three times with PBS and placed in HBSS solution for fluorescence microscopy and microplate reader assays, respectively.
In this example, different localization signal peptides were used to fuse to the optical probe 254/255-TtPFK- I253K/Q254L/R255L/G256F-cpYFP-Y1S which was localized in different organelles.
Thirty-six hours after transfection of 293 cells with optical probe plasmids expressed in the cytosol, the cells were rinsed with PBS, placed in an HBSS solution, and the change in the ratio of the fluorescence intensity at an excitation of 420 nm and an emission of 528 nm to that at an excitation of 485 nm and an emission of 528 nm was detected in a 30-minute period.

O=C(O)C(=O)O [Oxalate]
485/420 ratio: up to 3.5 times the initial value
